The results in this text go back to US8802664B2 (Bioproject, priority 2010, dated 2014).

One data set addresses T1, human H4 receptor (Homo sapiens, UniProt Q9H3N8).
T1 construct: expressed in transfected cells
As to the kind of experiment: [3H]Histamine binding on membranes of CHO cells stably expressing human H4 receptor. A digest of the protocol:
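First, thawed CHO membranes carrying human H4 were diluted to 20 μg protein per well in pH 7.4 Tris/EDTA buffer. Next, incubation was ended by rapid filtration through PEI-treated GF/B filters followed by cold rinses. Finally, retained radioactivity was counted; 10 μM JNJ 7777120 marked nonspecific binding.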

T1 sequence (Q9H3N8 whole entry): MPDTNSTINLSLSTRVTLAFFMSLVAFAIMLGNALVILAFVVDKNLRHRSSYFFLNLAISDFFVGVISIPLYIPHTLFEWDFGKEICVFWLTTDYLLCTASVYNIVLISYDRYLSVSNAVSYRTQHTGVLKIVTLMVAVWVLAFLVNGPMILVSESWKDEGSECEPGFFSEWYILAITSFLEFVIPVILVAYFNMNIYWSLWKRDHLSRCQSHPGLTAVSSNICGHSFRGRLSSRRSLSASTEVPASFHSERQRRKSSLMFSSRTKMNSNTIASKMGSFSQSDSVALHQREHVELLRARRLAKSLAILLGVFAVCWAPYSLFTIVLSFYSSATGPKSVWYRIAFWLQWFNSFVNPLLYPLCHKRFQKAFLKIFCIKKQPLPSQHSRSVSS

Take `CN1CCC(NC(c2cccc(C(F)(F)F)c2)c2nc3ccccc3[nH]2)CC1` (stereo not shown) [Example 59, [(1H-benzimidazol-2-yl)(3-trifluoromethylphenyl)methyl](1-methylpiperidin-4-yl)amine]: the melting point (as a rule, the temperature, or range, at which the solid turns liquid) was 90 °C. Besides, the Ki or IC50 activity class on human H4 receptor was < 30 nM.

On to `CN1CCC(NC(c2cccc(OC(F)(F)F)c2)c2nc3ccccc3[nH]2)CC1` (stereo not shown) [Example 60, [(1H-benzimidazol-2-yl)(3-trifluoromethoxyphenyl)methyl](1-methylpiperidin-4-yl)amine], for which the melting point is 82 °C. Moreover, the Ki or IC50 activity class at human H4 receptor was < 30 nM.

Regarding `CCc1cccc(C(NC2CCN(C)CC2)c2nc3ccccc3[nH]2)c1` (stereo not shown) [Example 61, [(1H-benzimidazol-2-yl)(3-ethylphenyl)methyl](1-methylpiperidin-4-yl)amine], the melting point turned out to be 76 °C. For the same compound, the Ki or IC50 activity class at human H4 receptor is < 30 nM.

`CN1CCC(OC(c2cccc(O)c2)c2nc3ccccc3s2)CC1` (stereo not shown) [Example 62, 3-[benzothiazol-2-yl(1-methylpiperidin-4-yloxy)methyl]phenol] had a melting point of 201 °C. Further, on human H4 receptor, the Ki or IC50 activity class is < 30 nM.

Turning to `CN1CCC(NC(c2cccc(OCc3ccccc3)c2)c2nc3ccccc3[nH]2)CC1` (stereo not shown) [Example 65, [(1H-benzimidazol-2-yl)(3-benzyloxyphenyl)methyl](1-methylpiperidin-4-yl)amine], the melting point is 78 °C. In addition, the Ki or IC50 activity class on human H4 receptor is < 30 nM.

In turn, `CC(C)c1cccc(C(NC2CCN(C)CC2)c2nc3ccccc3[nH]2)c1` (stereo not shown) [Example 66, [(1H-benzimidazol-2-yl)(3-isopropylphenyl)methyl](1-methylpiperidin-4-yl)amine] displayed a melting point of 82 °C. Moreover, the Ki or IC50 activity class at human H4 receptor was < 1000 nM.

`CC(C)COc1cccc(C(NC2CCN(C)CC2)c2nc3ccccc3[nH]2)c1` (stereo not shown) [Example 67, [(1H-benzimidazol-2-yl)(3-isobutoxyphenyl)methyl](1-methylpiperidin-4-yl)amine] gave a melting point of 99 °C. Moreover, the Ki or IC50 activity class on human H4 receptor was < 30 nM.

Consider `CC(C)CCOc1cccc(C(NC2CCN(C)CC2)c2nc3ccccc3[nH]2)c1` (stereo not shown) [Example 68, {(1H-benzimidazol-2-yl)[3-(3-methylbutoxy)phenyl]methyl}(1-methylpiperidin-4-yl)amine], for which the melting point was determined as 70 °C. Also, the Ki or IC50 activity class at human H4 receptor was < 300 nM.

Turning to `COc1cccc(C(NC2CCN(C)CC2)c2nc3ccccc3[nH]2)c1` (stereo not shown) [Example 70, [(1H-benzimidazol-2-yl)(3-methoxyphenyl)methyl](1-methylpiperidin-4-yl)amine], the melting point turned out to be 182 °C. In addition, on human H4 receptor, the Ki or IC50 activity class is < 300 nM.

With `CN1CCC(NC(c2cccc(OCC3CCCCC3)c2)c2nc3ccccc3[nH]2)CC1` (stereo not shown) [Example 73, [(1H-benzimidazol-2-yl)(3-cyclohexylmethoxyphenyl)methyl](1-methylpiperidin-4-yl)amine], the melting point amounted to 88 °C. Further, the Ki or IC50 activity class at human H4 receptor is < 300 nM.

Consider `CSc1cccc(C(NC2CCN(C)CC2)c2nc3ccccc3[nH]2)c1` (stereo not shown) [Example 75, [(1H-benzimidazol-2-yl)(3-methylsulfanylphenyl)methyl](1-methylpiperidin-4-yl)amine], for which the melting point was determined as 166 °C. For the same compound, the Ki or IC50 activity class on human H4 receptor was < 30 nM.

`CC(C)Oc1cccc(C(NC2CCN(C)CC2)c2nc3ccccc3[nH]2)c1` (stereo not shown) [Example 77, [(1H-benzimidazol-2-yl)(3-isopropoxyphenyl)methyl](1-methylpiperidin-4-yl)amine] showed a melting point of 75 °C. Besides, the Ki or IC50 activity class at human H4 receptor was < 300 nM.

`CCOc1cccc(C(NC2CCN(C)CC2)c2nc3ccccc3[nH]2)c1` (stereo not shown) [Example 83, [(1H-benzimidazol-2-yl)(3-ethoxyphenyl)methyl](1-methylpiperidin-4-yl)amine]: the melting point worked out at 74 °C. Moreover, the Ki or IC50 activity class at human H4 receptor is < 300 nM.

Consider `CC(=O)c1cccc(C(NC2CCN(C)CC2)c2nc3ccccc3[nH]2)c1` (stereo not shown) [Example 90, 1-{3-[(1H-benzimidazol-2-yl)(1-methylpiperidin-4-ylamino)methyl]phenyl}ethanone], for which the melting point turned out to be 198 °C. In addition, the Ki or IC50 activity class on human H4 receptor is < 300 nM.

As for `CN1CCC(NC(c2cccc(-c3ccccc3)c2)c2nc3ccccc3[nH]2)CC1` (stereo not shown) [Example 94, [(1H-benzimidazol-2-yl)biphenyl-3-ylmethyl](1-methylpiperidin-4-yl)amine], the melting point amounted to 98 °C. For the same compound, the Ki or IC50 activity class on human H4 receptor is < 30 nM.

`CSc1ccccc1-c1cccc(C(OC2CCN(C)CC2)c2nc3ccccc3[nH]2)c1` (stereo not shown) [Example 114, 2-[(1-methylpiperidin-4-yloxy)(2′-methylsulfanylbiphenyl-3-yl)methyl]-1H-benzimidazole] showed a melting point of 163 °C. Besides, on human H4 receptor, the Ki or IC50 activity class was < 300 nM.

In the case of `CN1CCC(OC(c2cccc(-c3ccc(C(F)(F)F)cc3)c2)c2nc3ccccc3[nH]2)CC1` (stereo not shown) [Example 119, 2-[(1-methylpiperidin-4-yloxy)(4′-trifluoromethylbiphenyl-3-yl)methyl]-1H-benzimidazole], the melting point worked out at 95 °C. Also, at human H4 receptor, the Ki or IC50 activity class is < 300 nM.

`CN1CCC(NC(c2cccc(OC3CCCCO3)c2)c2nc3ccccc3[nH]2)CC1` (stereo not shown) [Example 120, {(1H-benzimidazol-2-yl)[3-(tetrahydropyran-2-yloxy)phenyl]methyl}(1-methylpiperidin-4-yl)amine] returned a melting point of 97 °C. In addition, at human H4 receptor, the Ki or IC50 activity class is < 1000 nM.

The compound `CN1CCC(OC(c2cccc(-c3ccccc3CO)c2)c2nc3ccccc3[nH]2)CC1` (stereo not shown) [Example 123, {3′-[(1H-benzimidazol-2-yl)(1-methylpiperidin-4-yloxy)methyl]biphenyl-2-yl}methanol] had a melting point of 107 °C. Further, the Ki or IC50 activity class at human H4 receptor is < 1000 nM.

As for `COc1ccc(COc2cccc(C(NC3CCN(C)CC3)c3nc4ccccc4[nH]3)c2)cc1` (stereo not shown) [Example 124, {(1H-benzimidazol-2-yl)[3-(4-methoxybenzyloxy)phenyl]methyl}(1-methylpiperidin-4-yl)amine], the melting point came out at 84 °C. For the same compound, the Ki or IC50 activity class on human H4 receptor is < 30 nM.

In turn, `CN1CCC(NC(c2cccc(O)c2)c2nc3ccccc3[nH]2)CC1` (stereo not shown) [Example 126, 3-[(1H-benzimidazol-2-yl)(1-methylpiperidin-4-ylamino)methyl]phenol] yielded a melting point of 230 °C. For the same compound, the Ki or IC50 activity class at human H4 receptor is < 300 nM.

`Cc1ccc(COc2cccc(C(NC3CCN(C)CC3)c3nc4ccccc4[nH]3)c2)cc1` (stereo not shown) [Example 130, {(1H-benzimidazol-2-yl)[3-(4-methylbenzyloxy)phenyl]methyl}(1-methylpiperidin-4-yl)amine] yielded a melting point of 87 °C. Moreover, on human H4 receptor, the Ki or IC50 activity class is < 300 nM.

Compound `CN1CCC(NC(c2cccc([N+](=O)[O-])c2)c2nc3ccccc3[nH]2)CC1` (stereo not shown) [Example 131, [(1H-benzimidazol-2-yl)(3-nitrophenyl)methyl](1-methylpiperidin-4-yl)amine] showed a melting point of 254 °C. At human H4 receptor, the Ki or IC50 activity class is < 300 nM.

In the case of `CN1CCC(NC(c2cccc(N=[N+]=[N-])c2)c2nc3ccccc3[nH]2)CC1` (stereo not shown) [Example 132, [(3-azidophenyl)(1H-benzimidazol-2-yl)methyl](1-methylpiperidin-4-yl)amine], the melting point came out at 202 °C. Moreover, the Ki or IC50 activity class at human H4 receptor was < 300 nM.

In turn, `CN1CCC(OC(c2cccc(-c3ccc(NC(=O)OC(C)(C)C)cc3)c2)c2nc3ccccc3[nH]2)CC1` (stereo not shown) [Example 138, {3′-[(1H-benzimidazol-2-yl)(1-methylpiperidin-4-yloxy)methyl]biphenyl-4-yl}carbamic acid tert-butyl ester] yielded a melting point of 135 °C. Moreover, the Ki or IC50 activity class at human H4 receptor was < 300 nM.

The compound `CN1CCC(OC(c2cccc(-c3ccccc3F)c2)c2nc3ccccc3[nH]2)CC1` (stereo not shown) [Example 142, 2-[(2′-fluorobiphenyl-3-yl)(1-methylpiperidin-4-yloxy)methyl]-1H-benzimidazole] yielded a melting point of 90 °C. At human H4 receptor, the Ki or IC50 activity class was < 300 nM.

Take `CN1CCC(NC(c2cccc(-c3ccco3)c2)c2nc3ccccc3[nH]2)CC1` (stereo not shown) [Example 144, [(1H-benzimidazol-2-yl)(3-furan-2-ylphenyl)methyl](1-methylpiperidin-4-yl)amine]: the melting point turned out to be 108 °C. The Ki or IC50 activity class on human H4 receptor is < 30 nM.

Consider `C=CCCOc1cccc(C(NC2CCN(C)CC2)c2nc3ccccc3[nH]2)c1` (stereo not shown) [Example 145, [(1H-benzimidazol-2-yl)(3-but-3-enyloxyphenyl)methyl](1-methylpiperidin-4-yl)amine], for which the melting point turned out to be 71 °C. On human H4 receptor, the Ki or IC50 activity class was < 300 nM.

`CC(C)CCCOc1cccc(C(NC2CCN(C)CC2)c2nc3ccccc3[nH]2)c1` (stereo not shown) [Example 146, {(1H-benzimidazol-2-yl)[3-(4-methylpentyloxy)phenyl]methyl}(1-methylpiperidin-4-yl)amine] displayed a melting point of 73 °C. Also, the Ki or IC50 activity class at human H4 receptor is < 300 nM.

Turning to `CN1CCC(OC(c2cccc(SCc3ccccc3)c2)c2nc3ccccc3s2)CC1` (stereo not shown) [Example 148, 2-[(3-benzylsulfanylphenyl)(1-methylpiperidin-4-yloxy)methyl]benzothiazole], the melting point worked out at 195 °C. Further, on human H4 receptor, the Ki or IC50 activity class was < 300 nM.

For the compound `CN1CCC(OC(c2nc3ccccc3[nH]2)c2ccccc2Cl)CC1` (stereo not shown) [Example 151, 2-[(2-chlorophenyl)(1-methylpiperidin-4-yloxy)methyl]-1H-benzimidazole], the melting point is 212 °C. For the same compound, the Ki or IC50 activity class at human H4 receptor is < 300 nM.

Turning to `CN1CCC(OC(c2cccc(F)c2)c2nc3ccccc3[nH]2)CC1` (stereo not shown) [Example 155, 2-[(3-fluorophenyl)(1-methylpiperidin-4-yloxy)methyl]-1H-benzimidazole], the melting point was determined as 93 °C. The Ki or IC50 activity class on human H4 receptor is < 300 nM.
